These results are taken from patent publication US8124764B2, “Fused heterocyclyc inhibitor compounds” (Gilead Sciences, Inc., priority 2008, dated 2012).

SMILES strings stand for the structures.

One assay has as its target HDAC 1 (Homo sapiens, UniProt Q13547). As to the kind of experiment: HDAC 1 inhibition assay with about 3 hours enzyme/compound preincubation (fluorophore/quencher peptide substrate). Type of assay: biochemical. The conditions noted are these: 3-hour preincubation of enzyme with compound; read-out: HDAC 1 inhibitory activity (IC50 [μM]) (3-hour preincubation). The procedure:
HDAC inhibitory activity of the compound of Example 1 was measured by two types of assays in which HDAC 1 was used as a target molecule. The first assay was carried out without preincubation after addition of the enzyme. The test compound was suspended in and titrated in dmso. It was then spotted into a 384-well test plate. The enzyme, HDAC 1, was diluted in assay buffer containing 25 mM Tris-HCl (pH 8.0), 137 mM NaCl, 2.7 mM KCl, and 0.01% Tween-20 and added to the pre-spotted compound. The peptide substrate containing a fluorophore/quencher pair was diluted in the same assay buffer and added to the compound/enzyme mix initiating the reaction. The reaction incubated at room temperature for about 45 minutes. A concentrated developer solution was diluted in the assay buffer, and added to the reaction. The reaction was incubated at room temperature for about 15 minutes and relative fluorescence was read on an instrument reader.
The second assay is similar to the first assay described above, except that preincubation is carried out for about 3 hours after the enzyme is introduced. The test compound was suspended in, and titrated in DMSO. It was then spotted into a 384-well test plate. The enzyme, HDAC 1, was diluted in the same assay buffer as used in the previous assay and added to the pre-spotted compound. The enzyme/compound mix was incubated at room temperature for about 3 hours. The peptide substrate containing a fluorophore/quencher pair was diluted in the assay buffer and added to the compound/enzyme mix initiating the reaction. The reaction incubated at room temperature for 45 minutes. A concentrated developer solution was diluted in the assay buffer, and added to the reaction. The reaction was incubated at room temperature for about 15 minutes and relative fluorescence was read on an instrument reader.

Another assay addresses CDK2 (Homo sapiens, UniProt P24941). Kind of assay: CDK2 inhibition. Type of assay: biochemical.

HDAC 1, sequence (Q13547 whole entry, species assumed): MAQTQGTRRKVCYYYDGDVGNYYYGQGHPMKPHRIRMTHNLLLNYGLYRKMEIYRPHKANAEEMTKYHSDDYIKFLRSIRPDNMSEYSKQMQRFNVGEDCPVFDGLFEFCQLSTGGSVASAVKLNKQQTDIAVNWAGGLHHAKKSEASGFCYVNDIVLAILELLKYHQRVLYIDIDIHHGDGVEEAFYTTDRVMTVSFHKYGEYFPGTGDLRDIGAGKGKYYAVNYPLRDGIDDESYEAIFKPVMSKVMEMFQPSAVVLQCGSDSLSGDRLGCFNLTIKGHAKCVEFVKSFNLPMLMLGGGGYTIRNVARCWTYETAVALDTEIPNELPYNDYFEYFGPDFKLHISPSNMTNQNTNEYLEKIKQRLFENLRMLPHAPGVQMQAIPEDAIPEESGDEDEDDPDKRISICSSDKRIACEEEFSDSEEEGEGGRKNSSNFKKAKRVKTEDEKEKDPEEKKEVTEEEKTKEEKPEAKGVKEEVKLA

As usually defined, the IC50 is the midpoint of a concentration-inhibition curve. Turning to `Cc1nc2cc(NCCN(C)C)ccn2c1-c1ccnc(Nc2ccc(C(=O)Nc3ccccc3N)cc2)n1` [Example 32, N-(2-Amino-phenyl)-4-{4-[7-(2-dimethylamino-ethylamino)-2-methyl-imidazo[1,2-a]pyridin-3-yl]-pyrimidin-2-ylamino}-benzamide], the IC50 on HDAC 1 worked out at 0.141 µM; against CDK2, 2.58 µM.
For `Cc1nc2ccccn2c1-c1ccnc(Nc2nc(C(=O)Nc3ccccc3N)cs2)n1` [Example 62, N-(2-aminophenyl)-2-(4-(2-methylimidazo[1,2-a]pyridin-3-yl)pyrimidin-2-ylamino)thiazole-4-carboxamide] the same measures were more than 10 µM and 1.36 µM.
For `Cc1nc2cc(C(=O)NCCN3CCOCC3)ccn2c1-c1ccnc(Nc2ccc(C(=O)Nc3ccccc3N)cc2)n1` [Example 25, 3-(2-(4-(2-aminophenylcarbamoyl)phenylamino)pyrimidin-4-yl)-2-methyl-N-(2-morpholinoethyl)imidazo[1,2-a]pyridine-7-carboxamide] the same measures were 0.128 µM and 1.03 µM.
For `Cc1nc2cc(C#N)ccn2c1-c1ccnc(Nc2ccc(C(=O)Nc3ccccc3N)cc2)n1` [Example 24, N-(2-Amino-phenyl)-4-[4-(7-cyano-2-methyl-imidazo[1,2-a]pyridin-3-yl)-pyrimidin-2-ylamino]-benzamide] the same measures were 0.18 µM and 0.5 µM.
In the case of `Cc1nc2ccccn2c1-c1ccnc(Nc2ccc(C(=O)Nc3ccccc3N)cc2F)n1` [Example 34, N-(2-Amino-phenyl)-3-fluoro-4-[4-(2-methyl-imidazo[1,2-a]pyridin-3-yl)-pyrimidin-2-ylamino]-benzamide], the half-inhibitory concentration (IC50) was determined as 1.56 µM on HDAC 1 and 0.86 µM against CDK2.
Taken in the same sequence, the figures for `Cc1nc2c(F)cccn2c1-c1ccnc(Nc2ccc(C(=O)NO)cc2)n1` [Example 44, 4-[4-(8-Fluoro-2-methyl-imidazo[1,2-a]pyridin-3-yl)-pyrimidin-2-ylamino]-N-hydroxy-benzamide] were 0.251 µM and 0.09 µM.
For `Cc1nc2ccccn2c1-c1ccnc(Nc2nc(C(=O)NO)cs2)n1` [Example 61, N-hydroxy-2-(4-(2-methylimidazo[1,2-a]pyridin-3-yl)pyrimidin-2-ylamino)thiazole-4-carboxamide] the same measures were 1.8 µM and 0.56 µM.
As for `Cc1nc2cc(C(F)(F)F)ccn2c1-c1ccnc(Nc2ccc(C(=O)NO)cc2)n1` [Example 9, N-Hydroxy-4-[4-(2-methyl-7-trifluoromethyl-imidazo[1,2-a]pyridin-3-yl)-pyrimidin-2-ylamino]-benzamide], the values for the IC50 on HDAC 1 and against CDK2 were 0.0392 µM and 0.037 µM, respectively.
On to `COCCNC(=O)c1ccc2nc(C)c(-c3ccnc(Nc4ccc(C(=O)Nc5ccccc5N)cc4)n3)n2c1` [Example 38, 3-(2-(4-(2-aminophenylcarbamoyl)phenylamino)pyrimidin-4-yl)-N-(2-methoxyethyl)-2-methylimidazo[1,2-a]pyridine-6-carboxamide], for which the IC50 was 0.312 µM at HDAC 1 and 2.74 µM at CDK2.
Regarding `Cc1nc2ccccn2c1-c1ccnc(Nc2ccc(C(=O)NO)cn2)n1` [Example 64, N-hydroxy-6-(4-(2-methylimidazo[1,2-a]pyridin-3-yl)pyrimidin-2-ylamino)nicotinamide], the concentration for half-maximal inhibition (IC50) was found to be 0.094 µM at HDAC 1 and 0.52 µM at CDK2.
Turning to `O=C(NO)c1ccc(N(CC(F)(F)F)c2nccc(-c3cnc4ccccn34)n2)cc1` [Example 57, N-Hydroxy-4-[(4-imidazo[1,2-a]pyridin-3-yl-pyrimidin-2-yl)-(2,2,2-trifluoro-ethyl)-amino]-benzamide], the IC50 worked out at 0.147 µM at HDAC 1 and 2.87 µM on CDK2.
For `Cc1nc2ccccn2c1-c1ccnc(Nc2csc(C(=O)NO)c2)n1` [Example 71, N-hydroxy-4-(4-(2-methylimidazo[1,2-a]pyridin-3-yl)pyrimidin-2-ylamino)thiophene-2-carboxamide] the same measures were 0.185 µM and 0.026 µM.
Taken in the same sequence, the figures for `O=C(NO)c1ccc(Nc2nccc(-c3c(C(F)(F)F)nc4ccccn34)n2)cc1` [Example 15, N-Hydroxy-4-[4-(2-trifluoromethyl-imidazo[1,2-a]pyridin-3-yl)-pyrimidin-2-ylamino]-benzamide] were 0.0818 µM and 0.18 µM.
Regarding `Cc1nc2ccccn2c1-c1ccnc(Nc2ccc(C(=O)NO)cc2F)n1` [Example 33, 3-Fluoro-N-hydroxy-4-[4-(2-methyl-imidazo[1,2-a]pyridin-3-yl)-pyrimidin-2-ylamino]-benzamide], the IC50 at HDAC 1 turned out to be 0.126 µM; on CDK2, 0.22 µM.
Taken in the same sequence, the figures for `O=C(NO)c1ccc(Nc2ncc(F)c(-c3cnc4ccccn34)n2)cc1` [Example 51, 4-(5-Fluoro-4-imidazo[1,2-a]pyridin-3-yl-pyrimidin-2-ylamino)-N-hydroxy-benzamide] were 0.211 µM and 0.014 µM.
Taken in the same sequence, the figures for `COc1ccn2c(-c3ccnc(Nc4ccc(C(=O)NO)cc4)n3)c(C(F)(F)F)nc2c1` [Example 49, N-Hydroxy-4-[4-(7-methoxy-2-trifluoromethyl-imidazo[1,2-a]pyridin-3-yl)-pyrimidin-2-ylamino]-benzamide] were 0.199 µM and 0.06 µM.
Taken in the same sequence, the figures for `Cc1nc2ncccn2c1-c1ccnc(Nc2ccc(C(=O)Nc3ccccc3N)cc2)n1` [Example 22, N-(2-Amino-phenyl)-4-[4-(2-methyl-imidazo[1,2-a]pyrimidin-3-yl)-pyrimidin-2-ylamino]-benzamide] were 0.071 µM and 2.87 µM.
As for `Cc1nc2ccccn2c1-c1ccnc(Nc2ncc(C(=O)NO)s2)n1` [Example 65, N-hydroxy-2-(4-(2-methylimidazo[1,2-a]pyridin-3-yl)pyrimidin-2-ylamino)thiazole-5-carboxamide], the results for the IC50 at HDAC 1 and against CDK2 were 0.109 µM and 1.86 µM, respectively.
As for `Cc1nc2ccccn2c1-c1ccnc(Nc2cccc(C(=O)NO)c2)n1` [Example 3, N-Hydroxy-3-[4-(2-methyl-imidazo[1,2-a]pyridin-3-yl)-pyrimidin-2-ylamino]-benzamide], the IC50 at HDAC 1 worked out at 0.011 µM; at CDK2, 0.18 µM.
Turning to `COCCOc1ccc2nc(C)c(-c3ccnc(Nc4ccc(C(=O)Nc5ccccc5N)cc4)n3)n2c1` [Example 41, N-(2-Amino-phenyl)-4-{4-[6-(2-methoxy-ethoxy)-2-methyl-imidazo[1,2-a]pyridin-3-yl]-pyrimidin-2-ylamino}-benzamide], the values for the IC50 at HDAC 1 and on CDK2 were 0.877 µM and 4.34 µM, respectively.
Taken in the same sequence, the figures for `COC(=O)c1ccn2c(-c3ccnc(Nc4ccc(C(=O)Nc5ccccc5N)cc4)n3)c(C)nc2c1` [Example 26, Methyl 3-(2-(4-(2-aminophenylcarbamoyl)phenylamino)pyrimidin-4-yl)-2-methylimidazo[1,2-a]pyridine-7-carboxylate] were more than 10 µM and 0.53 µM.
Taken in the same sequence, the figures for `Cc1nc2ccc(C(F)(F)F)cn2c1-c1ccnc(Nc2ccc(C(=O)Nc3ccccc3N)cc2)n1` [Example 12, N-(2-Amino-phenyl)-4-[4-(2-methyl-6-trifluoromethyl-imidazo[1,2-a]pyridin-3-yl)-pyrimidin-2-ylamino]-benzamide] were more than 10 µM and 0.32 µM.
On to `Cc1nc2ccc(Br)cn2c1-c1ccnc(Nc2ccc(C(=O)Nc3ccccc3N)cc2)n1` [Example 47, N-(2-Amino-phenyl)-4-[4-(6-bromo-2-methyl-imidazo[1,2-a]pyridin-3-yl)-pyrimidin-2-ylamino]-benzamide], for which the IC50 on HDAC 1 is more than 10 µM; at CDK2, 0.14 µM.
Taken in the same sequence, the figures for `Cc1nc2ccccn2c1-c1ccnc(Nc2cnc(C(=O)NO)cn2)n1` [Example 67, N-hydroxy-5-(4-(2-methylimidazo[1,2-a]pyridin-3-yl)pyrimidin-2-ylamino)pyrazine-2-carboxamide] were 0.169 µM and 0.68 µM.
For `COc1ccn2c(-c3ccnc(Nc4ccc(C(=O)Nc5ccccc5N)cc4)n3)c(C)nc2c1` [Example 14, N-(2-Amino-phenyl)-4-[4-(7-methoxy-2-methyl-imidazo[1,2-a]pyridin-3-yl)-pyrimidin-2-ylamino]-benzamide] the same measures were approximately 0.09 µM and 0.06 µM.
Turning to `Cc1nc2cccnn2c1-c1ccnc(Nc2ccc(C(=O)NO)cc2)n1` [Example 17, N-Hydroxy-4-[4-(2-methyl-imidazo[1,2-b]pyridazin-3-yl)-pyrimidin-2-ylamino]-benzamide], the 50% inhibitory concentration (IC50) was 0.273 µM at HDAC 1 and 0.034 µM against CDK2.
Taken in the same sequence, the figures for `Cc1nc2ccc(C(=O)NCCN3CCOCC3)cn2c1-c1ccnc(Nc2ccc(C(=O)Nc3ccccc3N)cc2)n1` [Example 40, 3-(2-(4-(2-aminophenylcarbamoyl)phenylamino)pyrimidin-4-yl)-2-methyl-N-(2-morpholinoethyl)imidazo[1,2-a]pyridine-6-carboxamide] were 0.347 µM and 7.1 µM.
